Patent US5264556A, “Monoclonal antibodies for measuring okadaic acid” (priority 1992, dated 1993)

What was measured:
6/50 antibody = experiment: Cross-reactivity of 6/50 antibody with OA analogues in competitive ELISA (FIG. 9); type: binding, mouse; conditions: toxins in 40% MEOH
Procedure: FIG. 9A Assay wells were coated with OA and incubated with a fixed concentration of 6/50 IgG and varying amounts of each toxin in 40% MEOH.
FIG 9B & 9C Assay wells were coated with purified antiidiotypic antibody (1/59) F(ab')2 fragments (5 μg/ml) and incubated with a fixed concentration of mAb 6/50 (100 ng/ml) and varying amounts of OA analogues in 40% MEOH.
In FIG. 9A, the assay wells were coated with OA and incubated with a fixed concentration of 6/50 IgG and varying amounts of each toxin in 40% MEOH. Bound antibody was detected with HRP-conjugated anti-mouse IgG. Toxins used in this competitive ELISA were generously donated by Dr. Takeshi Yasumoto (Tohoku University, Japan).
For FIG. 9B and 9C, the assay wells were coated with purified anti-idiotypic (1/59) F(ab')2 (5μg/ml) and incubated with a fixed concentration of antibody 6/50 (100 ng/ml) and varying amounts of okadaic acid analogues in 40% MEOH. Bound 6/50 IgG was detected with HRP-conjugated anti-mouse IgG Fc fragment specific antisera.

[1] = biological target: T1, protein phosphatase-2A (PP2A) catalytic subunit (Oryctolagus cuniculus, UniProt P67777); experiment: Standard phosphorylase a phosphatase assay, PP2A; type: biochemical, rabbit; conditions: standard commercial preparation of okadaic acid; read-out: IC50 for PP2A inhibition
T1 construct: Homogeneous PP-1 and -2A catalytic subunits are purified from rabbit skeletal muscle; from tissue; host or cells: rabbit skeletal muscle
Procedure: (§1) The biological activity of OA was assayed by the ability of this toxin to inhibit dephosphorylation of ^32 P-radiolabelled glycogen phosphorylase (E.C. 2.4.1.1) by protein phosphatases (E.C. 3.1.3.16) in the standard phosphorylase phosphatase assay.
(§2) Phosphorylase (50 mM) is dialyzed extensively against NaF (15 mM) to block endogenous phosphatase activity. The protein is diluted to 3 mg/ml (30 pmol/μl ) in Tris HCl (50 mM, pH 7.0) containing ethylenediamine tetra-acetic acid (EDTA, 0.1 mM), bovine serum albumin (1 mg/ml), 2-mercaptoethanol (0.2% v/v) and caffeine (15mM). An incubation comprising 10 μl protein phosphatase-1 or -2A (PP2A, 1 mU/ml in Tris HCl, pH 7.0) and 10 μl phosphatase inhibitor (in Tris HCl, pH 7.0) is carried out for 10 minutes at 30° C. An aliquot (10 μl) of phosphorylase (30 pmol/μl, specific radioactivity >0.6×10^6 dpm/nmol) is added to start the reaction, which is terminated after 10 minutes by adding 200 μl trichloroacetic acid (20% w/v,TCA). The suspension is vortexed, stood on ice for 1 minute and centrifuged at 15,000g for 2 minutes. An aliquot (200 μl) of supernatant is added to 1 ml scintillant and counted. One milliunit(mU) of protein phosphatase activity releases 1 nmol phosphate from phosphorylase per minute. […]

Solubility of OA = type: physicochemical
Source text: It is obvious that methanol has a deleterious effect on 6/50 IgG binding to OA since the sensitivity of OA detection in the presence of 40% MeOH drops considerably when compared with 10% MeOH content. The addition of 10% MeOH seems to be the optimal for this assay. Absence of MeOH decreases OA solubility and thus the slope of the standard curve.

[2] = system: F(ab')2 fragments of 6/50 IgG; experiment: Competition ELISA, Example II: free OA versus 1/59 IgG for binding to solid-phase 6/50 F(ab')2; parameters: species or system mouse; conditions: free OA 0-10 μg/ml in 10% MeOH, 1/59 500 ng/ml
Procedure: In the reverse assay, 96-well microtiter plates are coated with 100 μl of 10 μg/ml of F(ab')2 fragments of 6/50 IgG in 0.05M sodium carbonate bicarbonate buffer, pH 9.6, overnight at 4° C. The unbound F(ab')2 fragments are washed off with Tris-buffered saline and the remaining binding sites are saturated with 200 μl of 1% powdered-milk in Tris-saline (TS-MILK) for one hour at 37° C. After washing, the wells are incubated simultaneously with 50 μl of a fixed amount of anti-idiotypic IgG 1/59 (500 ng/ml) and 50 μl of free OA diluted in 10% methanol (MeOH) at increasing concentrations (0-10 μg/ml) for one hour at 37° C. After the unbound antibody and antigen are washed off, 100 μl of a peroxidase conjugated goat anti-mouse IgG Fc-fragment-specific antiserum is added for one hour at 37° C.
The colorimetric reaction is developed upon the addition of 0.03% H2 O2 in 0.1 M sodium citrate buffer, pH 7.0, containing 0.1% OPD. The reaction is stopped with 3 N H2 SO4 and the color intensity measured at a wavelength of 492 nm using a BioRad® ELISA reader.

6/50 IgG = experiment: Competitive ELISA, Example IV: solid-phase OA versus free OA for binding to 6/50 IgG; parameters: species or system mouse; conditions: OA standards 0-30 ng/ml in 10% MeOH
Procedure: This assay is based on the competition between solid-phase attached OA and free OA (analyte) for binding to a limited number of binding sites on 6/50 IgG in solution.
Thus, 96-well microtiter plates are coated with 100 μl of OA-OVAL (10 μg/ml) in 0.05M sodium carbonate bicarbonate buffer, pH 9.6, overnight at 4° C. The unbrund OA-OVAL is washed off with Tris-buffered saline and the remaining binding sites are saturated with 200 μl of TS-MILK for one hour at 37° C. After washing, the wells are incubated simultaneously with 50 μl of OA standards (0-30 ng/ml) diluted in 10% MeOH and applied in the presence of 50 μl of limiting amounts of 6/50 IgG for one hour at 37° C. After the unbound antibody and antigen are washed off, 100 μl of a peroxidase conjugated goat anti-mouse IgG antiserum diluted in TS-MILK is added and incubated for one hour at 37° C.
Ihe colorimetric reaction is developed upon the add:tion of 0.03% H2 O2 in 0.1 M sodium citrate buffer, pH 7.0, containing 0.1% OPD. The reaction is stopped with 3 N H2 SO4 and the color intensity measured at a wavelength of 492 nm using a BioRad ELISA reader.

[3] = biological target: protein phosphatase-1 (PP1) catalytic subunit; experiment: Standard phosphorylase a phosphatase assay, PP1; type: biochemical, rabbit; conditions: standard commercial preparation of okadaic acid; read-out: IC50 for PP1 inhibition
Procedure: as §1, §2

T1 sequence (P67777 whole entry): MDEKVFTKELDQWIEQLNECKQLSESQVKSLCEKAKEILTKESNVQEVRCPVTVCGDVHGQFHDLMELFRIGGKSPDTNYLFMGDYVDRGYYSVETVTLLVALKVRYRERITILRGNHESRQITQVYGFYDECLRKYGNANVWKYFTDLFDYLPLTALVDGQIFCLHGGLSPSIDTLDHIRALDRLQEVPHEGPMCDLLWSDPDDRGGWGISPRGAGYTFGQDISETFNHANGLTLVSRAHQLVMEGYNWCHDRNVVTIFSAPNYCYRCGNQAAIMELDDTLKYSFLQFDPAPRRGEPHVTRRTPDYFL

| SMILES | binding to 6/50 antibody relative to okadaic acid (cross-reactivity) (6/50 antibody) | IC50 [1] [nM] | solubility (Solubility of OA) | inhibition of 1/59 IgG binding to solid-phase bound 6/50 IgG F(ab')2 [2] | competition with solid-phase fixed OA for binding to 6/50 (6/50 IgG) | IC50 [3] [nM] |
| --- | --- | --- | --- | --- | --- | --- |
| C=C1C(C(CC(C)C2OC3(CCCCO3)CCC2C)OC(C)=O)OC2CCC3(CCC(C=CC(C)C4CC(C)=CC5(OC(CC(C)(OC(C)=O)C(=O)O)CCC5OC(C)=O)O4)O3)OC2C1OC(C)=O (stereo not shown) [tetra acetyl okadaic acid] | significantly lower affinity |  |  |  |  |  |
| C=C1C(O)C2OC3(CCC(C=CC(C)C4CC(C)=CC5(OC(CC(C)(O)C(=O)O)CCC5O)O4)O3)CCC2OC1C(O)CC(C)C1OC2(CCC1C)OCCCC2C (stereo not shown) [DTX-1, 35-methyl-okadaic acid] | significantly lower affinity |  |  |  |  |  |
| C=C1[C@@H](O)[C@@H]2O[C@]3(CC[C@H](/C=C/[C@@H](C)[C@@H]4CC(C)=C[C@@]5(O[C@H](C[C@@](C)(O)C(=O)O)CC[C@H]5O)O4)O3)CC[C@H]2O[C@@H]1[C@@H](O)C[C@H](C)[C@H]1O[C@@]2(CCCCO2)CC[C@H]1C [okadaic acid] |  | 0.2 | only soluble in the presence of organic solvents | clearly inhibited | dose-dependent manner | 19 |
